{"source": "patent US20170035708A1", "about": "“USE OF N-(4-TERT-BUTYLBENZYL)-3-CHLORO-N-[2-(4-CHLORO-3-ETHYL-PHENYL)-ETHYL]-2-FLUORO-5-TRIFLUOROMETHYL-BENZAMIDE FOR THE TREATMENT OF EYE DISEASES” (Hoffmann-La Roche Inc., priority 2013, published 2017)", "key": {"Membrane permeability": {"test": "Membrane permeability", "type": "in vitro ADME", "protocol": "(§1) The pharmacokinetic (PK) properties of N-(4-tert-Butyl-benzyl)-3-chloro-N-[2-(4-chloro-3-ethyl-phenyl)-ethyl]-2-fluoro-5-trifluoromethyl-benz-amide were assessed in the rat and cynomolgus monkey. […] The very high protein binding, in combination with moderate membrane permeability, is the likely cause for the low volume of distribution observed in vivo."}, "plasma CETP activity": {"molecular_target": "T1, plasma CETP activity (Homo sapiens, UniProt P11597)", "T1 construct": "from tissue; host or cells: plasma of study subjects", "T1 sequence (P11597 18-493)": "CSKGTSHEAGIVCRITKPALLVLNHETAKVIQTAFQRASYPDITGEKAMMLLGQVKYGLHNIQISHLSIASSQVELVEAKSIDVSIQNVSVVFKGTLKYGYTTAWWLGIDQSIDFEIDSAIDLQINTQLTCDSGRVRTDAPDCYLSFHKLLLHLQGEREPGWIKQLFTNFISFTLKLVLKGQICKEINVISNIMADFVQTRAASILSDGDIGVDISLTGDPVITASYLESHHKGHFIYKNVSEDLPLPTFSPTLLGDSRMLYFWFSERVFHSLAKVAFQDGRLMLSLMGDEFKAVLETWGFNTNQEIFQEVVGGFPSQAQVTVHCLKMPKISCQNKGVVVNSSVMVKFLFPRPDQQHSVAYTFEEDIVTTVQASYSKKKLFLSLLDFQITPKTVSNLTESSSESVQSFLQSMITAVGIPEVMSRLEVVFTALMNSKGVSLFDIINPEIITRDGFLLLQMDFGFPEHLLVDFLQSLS", "test": "Plasma CETP activity and CETP mass in combined SAD/MAD clinical study", "type": "in vivo", "protocol": "The main difference between the different doses was the duration of the inhibition, which was sustained for 24 hours with the two highest tested multiple dose levels (180 mg and 420 mg). […] After multiple doses of N-(4-tert-Butyl-benzyl)-3-chloro-N-[2-(4-chloro-3-ethyl-phenyl)-ethyl]-2-fluoro-5-trifluoromethyl-benz-amide for 14 days, a similar trend in CETP inhibition was observed."}, "[1]": {"system": "50 pharmacologically relevant receptors", "test": "Binding screen on 50 pharmacologically relevant receptors", "conditions": "concentration of 10 μM"}, "[2]": {"test": "Pharmacokinetic properties and excretion in the rat", "type": "in vivo", "protocol": "as §1\nIn the rat and cynomolgus monkey, the major excretion route was the bile and feces, independent of the route of administration (approximately 92% of administered dose eliminated). Less than 1% of the dose was eliminated renally."}, "[3]": {"test": "Clinical pharmacokinetics, SAD/MAD study and food effect", "type": "in vivo, human", "protocol": "Two clinical studies have been completed with N-(4-tert-Butyl-benzyl)-3-chloro-N-[2-(4-chloro-3-ethyl-phenyl)-ethyl]-2-fluoro-5-trifluoromethyl-benz-amide in male healthy subject and male mildly dyslipidemic subjects.\nFollowing oral administration of N-(4-tert-Butyl-benzyl)-3-chloro-N-[2-(4-chloro-3-ethyl-phenyl)-ethyl]-2-fluoro-5-trifluoromethyl-benz-amide at single ascending doses (SAD) and multiple ascending doses (MAD) in a first clinical study, a lag time (Tlag) of 0.5 hour was observed, and Cmax was achieved on average at 3 hours post-dose.\nFood increased the oral bioavailability of N-(4-tert-Butyl-benzyl)-3-chloro-N-[2-(4-chloro-3-ethyl-phenyl)-ethyl]-2-fluoro-5-trifluoromethyl-benz-amide. A standard breakfast increased exposure in terms of AUC and Cmax by approximately 4- to 6-fold, compared with the fasted state and depending on the formulation used."}, "[4]": {"molecular_target": "T2, cholesteryl ester transfer protein (CETP) (Homo sapiens, UniProt P11597)", "T2 sequence (P11597 18-493)": "T1 sequence (P11597 18-493)", "test": "In vitro inhibition of CETP activity", "type": "biochemical"}, "[5]": {"test": "Physicochemical properties (solubility, stability, lipophilicity)", "from_the_text": "N-(4-tert-Butyl-benzyl)-3-chloro-N-[2-(4-chloro-3-ethyl-phenyl)-ethyl]-2-fluoro-5-trifluoromethyl-benz-amide is a potent inhibitor of cholesteryl ester transfer protein (CETP), which was originally developed for the treatment of dyslipidemia and prevention of cardiovascular events. The clinical development was discontinued in 2009 due to strategic portfolio decision; the discontinuation was not due to the safety profile of the product. […] Liquid-filled hard capsules in the dose strength of 60 mg have been developed.\nas §1"}, "plasma protein": {"system": "plasma protein", "test": "In vitro plasma protein binding", "type": "in vitro ADME", "protocol": "as §1"}}, "note": "Where “and” joins values, the source holds several entries; their conditions need not be identical. Equal entries are not always repeated."}
{"smiles": "CCc1cc(CCN(Cc2ccc(C(C)(C)C)cc2)C(=O)c2cc(C(F)(F)F)cc(Cl)c2F)ccc1Cl", "note": "[Compound 1, N-(4-tert-Butyl-benzyl)-3-chloro-N-[2-(4-chloro-3-ethyl-phenyl)-ethyl]-2-fluoro-5-trifluoromethyl-benzamide]", "values": [{"measurement": "membrane permeability", "setting": "Membrane permeability", "result": "moderate"}, {"measurement": "CETP mass", "setting": "plasma CETP activity; after multiple doses", "result": "dose-dependent and time-dependent increase"}, {"measurement": "inhibition of plasma CETP activity", "setting": "plasma CETP activity; first measurement, 2 hours post-dose, Day 1, all doses, healthy and mildly dyslipidemic subjects", "result": "Complete CETP inhibition"}, {"measurement": "duration of the CETP inhibition", "setting": "plasma CETP activity; two highest multiple dose levels (180 mg and 420 mg)", "result": 24, "unit": "h"}, {"measurement": "binding to 50 pharmacologically relevant receptors", "setting": "[1]", "result": "no significant binding"}, {"measurement": "absolute oral bioavailability", "setting": "[2]", "result": "relatively low"}, {"measurement": "dose eliminated renally", "setting": "[2]", "result": "Less than 1%"}, {"measurement": "gastrointestinal absorption", "setting": "[2]", "result": "limited"}, {"measurement": "terminal half-life", "setting": "[2]", "result": "medium to long"}, {"measurement": "total systemic clearance", "setting": "[2]", "result": "low"}, {"measurement": "volume of distribution", "setting": "[2]", "result": "low"}, {"measurement": "plasma protein binding", "setting": "[2]; across species", "result": "very high"}, {"measurement": "administered dose eliminated via bile and feces", "setting": "[2]; independent of the route of administration", "result": "approximately 92%"}, {"measurement": "accumulation ratio for AUC0-24h", "setting": "[3]; 420 mg once daily, Day 14 to Day 1", "result": 1.4}, {"measurement": "accumulation with once-daily regimen", "setting": "[3]; across doses except the highest dose (420 mg)", "result": "No accumulation was apparent"}, {"measurement": "half-life", "setting": "[3]; male, human, in vivo, oral, after multiple doses above 10 mg, read-out: mean terminal half-life", "result": "900 to 2100", "unit": "min"}, {"measurement": "dose up to which AUC0-24h and Cmax increased dose-proportionally", "setting": "[3]; multiple doses (part 2 MAD)", "result": "≤ 180", "unit": "mg"}, {"measurement": "lag time (Tlag)", "setting": "[3]; oral, SAD and MAD, first clinical study", "result": 0.5, "unit": "h"}, {"measurement": "dose up to which AUC0-24h and Cmax increased dose-proportionally", "setting": "[3]; single doses (part 1 SAD)", "result": "≤ 360", "unit": "mg"}, {"measurement": "IC50", "setting": "[4]", "result": "8 nM and 7.21 nM"}, {"measurement": "lipophilicity", "setting": "[5]", "result": "highly lipophilic"}, {"measurement": "solubility in aqueous media", "setting": "[5]; aqueous media", "result": "practically insoluble"}, {"measurement": "dissolution rate", "setting": "[5]; as cause of limited absorption", "result": "low"}, {"measurement": "solubility", "setting": "[5]; as cause of limited absorption", "result": "low"}, {"measurement": "solubility in common organic solvents", "setting": "[5]; common organic solvents", "result": "soluble"}, {"measurement": "stability of the powder", "setting": "[5]; white to off-white powder", "result": "stable"}, {"measurement": "plasma protein binding in vitro", "setting": "plasma protein", "result": "extremely high and concentration-independent"}]}
